Tests used:
MATIN [1] = experiment: Herbicidal effect post-emergence; type: in vivo, Matricaria inodora; conditions: 320 g/ha, visual grading after ca. 3 weeks (Table 7)
Source text: (§1) Seeds of mono- and dicotyledonous weed plants and crop plants are sown in wood-fiber pots in sandy loam, covered with soil and grown in a greenhouse under controlled growth conditions. 2 to 3 weeks after sowing, the test plants are sprayed in the single-leaf stage. The compounds according to the invention, formulated in form of wettable powders (WP) or as emulsifiable concentrates (EC), are then sprayed onto the green plant parts as aqueous suspension or emulsion, with the addition of 0.5% of an additive, at an application rate of 600 l of water/ha (converted). After the test plants had been in the greenhouse for ca. 3 weeks under optimum growth conditions, the effect of the preparations is assessed visually in comparison with untreated controls (herbicidal effect in percent (%): 100% effect=plants have died off, 0% effect=as control plants).

MATIN [2] = experiment: Herbicidal effect pre-emergence; type: in vivo, Matricaria inodora; conditions: 320 g/ha, visual grading after ca. 3 weeks vs untreated controls
Source text: (§2) Seeds of mono- and dicotyledonous weed plants and crop plants are sown in wood-fiber pots in sandy loam and covered with soil. The compounds according to the invention, formulated in the form of wettable powders (WP) or as emulsifiable concentrates (EC), are then applied to the surface of the covering soil as aqueous suspension or emulsion, with the addition of 0.5% of an additive, at an application rate of 600 l of water/ha (converted).
(§3) Following treatment, the pots are placed in a greenhouse and kept under optimum growth conditions for the test plants. The visual grading of the damage to the test plants is carried out after ca. 3 weeks in comparison to untreated controls (herbicidal effect in percent (%): 100% effect=plants have died off, 0% effect=as control plants).

Amaranthus retroflexus [3] = experiment: Herbicidal effect pre-emergence; type: in vivo; conditions: 320 g/ha, visual grading after ca. 3 weeks vs untreated controls
Source text: (§4) Herbicidal activities of the compounds of the formulae (G1) or (G2) according to the invention were investigated against the following harmful plants: • ALOMY=Alopecurus myosuroides • ECHCG=Echinochloa crus-galli • SETVI=Setaria viridis • ABUTH=Abutilon theophrasti • AMARE=Amaranthus retroflexus • PHBPU=Pharbitis purpurea • POLCO=Polygonum convolvulus (=Fallopia convolvulus) • STEME=Stellaria media • VIOTR=Viola tricolor
as §2, §3

Setaria viridis [4] = experiment: Herbicidal effect pre-emergence; type: in vivo; conditions: 320 g/ha, visual grading after ca. 3 weeks vs untreated controls
Source text: as §4, §2, §3

Viola tricolor [5] = experiment: Herbicidal effect pre-emergence; type: in vivo; conditions: 320 g/ha, visual grading after ca. 3 weeks vs untreated controls
Source text: as §4, §2, §3

Stellaria media [6] = experiment: Herbicidal effect pre-emergence; type: in vivo; conditions: 320 g/ha, visual grading after ca. 3 weeks vs untreated controls
Source text: as §4, §2, §3

Alopecurus myosuroides = experiment: Herbicidal effect pre-emergence; type: in vivo; conditions: 320 g/ha, visual grading after ca. 3 weeks vs untreated controls
Source text: as §4, §2, §3

Amaranthus retroflexus [7] = experiment: Herbicidal effect post-emergence; type: in vivo; conditions: 320 g/ha
Source text: as §4, §1

Setaria viridis [8] = experiment: Herbicidal effect post-emergence; type: in vivo; conditions: 320 g/ha
Source text: as §4, §1

Viola tricolor [9] = experiment: Herbicidal effect post-emergence; type: in vivo; conditions: 320 g/ha
Source text: as §4, §1

[10] = tested on: Polygonum convolvulus (=Fallopia convolvulus); experiment: Herbicidal effect post-emergence; type: in vivo; conditions: 320 g/ha, visual grading after ca. 3 weeks (Table 7)
Source text: as §4, §1

Stellaria media [11] = experiment: Herbicidal effect post-emergence; type: in vivo; conditions: 320 g/ha, visual grading after ca. 3 weeks (Table 7)
Source text: as §4, §1

Pharbitis purpurea = experiment: Herbicidal effect post-emergence; type: in vivo; conditions: 320 g/ha, visual grading after ca. 3 weeks (Table 7)
Source text: as §4, §1

[12] = visual grading after ca. 3 weeks (Table 7)
[13] = visual grading after ca. 3 weeks (Table 9)

Row | Compound | herbicidal effect MATIN (MATIN [1]) | herbicidal effect MATIN (MATIN [2]) | herbicidal effect AMARE (Amaranthus retroflexus [3]) | herbicidal effect SETVI (Setaria viridis [4]) | herbicidal effect VIOTR (Viola tricolor [5]) | herbicidal effect STEME (Stellaria media [6]) | herbicidal effect ALOMY (Alopecurus myosuroides) | herbicidal effect AMARE (Amaranthus retroflexus [7]; [12]) | herbicidal effect SETVI (Setaria viridis [8]; [12]) | herbicidal effect VIOTR (Viola tricolor [9]; [12]) | herbicidal effect POLCO [10] | herbicidal effect STEME (Stellaria media [11]) | herbicidal effect PHBPU (Pharbitis purpurea) | herbicidal effect AMARE (Amaranthus retroflexus [7]; [13]) | herbicidal effect SETVI (Setaria viridis [8]; [13]) | herbicidal effect VIOTR (Viola tricolor [9]; [13])
1 | O=C(Nc1nsc2c(=O)n(CC3CCCCC3Cl)cc(Cl)c12)C(F)(F)C(F)(F)F (racemic) [Example I-161] | 80% | 100% | 100% | 100% | 100% | 100% | 100% | 100% | 100% | 100% | 100% | 100% | 100% |  |  | 
2 | O=C(Nc1nsc2c(=O)n(CC3CCCCC3Cl)cc(Cl)c12)C(F)F (racemic) [Example I-160] | 80% | 100% | 100% | 100% | 100% | 100% | 100% | 100% | 100% | 100% | 100% | 100% | 100% |  |  | 
3 | Nc1nsc2c(=O)n(Cc3cc(F)c(F)cc3F)cc(Cl)c12 [Example I-136] | 100% | 90% | 100% | 100% | 100% | 100% | 100% | 100% | 90% | 100% | 100% | 100% | 100% |  |  | 
4 | Nc1nsc2c(=O)n(CC3CCCCC3)cc(Cl)c12 [Example I-064] | 100% | 100% | 100% | 100% | 100% | 100% | 100% | 100% | 100% | 100% | 100% | 100% | 100% |  |  | 
5 | Nc1nsc2c(=O)n(CC3CCCCC3Cl)cc(Cl)c12 (racemic) [Example I-156] | 80% | 100% | 100% | 100% | 100% | 100% | 100% | 100% | 100% | 100% | 100% | 100% | 100% |  |  | 
6 | CCC(=O)Nc1nsc2c(=O)n(CC3CCCCC3)cc(F)c12 [Example I-128] | 100% | 100% | 100% | 100% | 100% | 100% | 100% | 100% | 100% | 100% | 100% | 100% | 100% |  |  | 
7 | O=C(Nc1nsc2c(=O)n(CC3CCCCC3)cc(F)c12)C(F)(F)C(F)(F)F [Example I-127] | 100% | 100% | 100% | 100% | 100% | 100% | 100% | 100% | 100% | 100% | 100% | 100% | 100% |  |  | 
8 | O=C(Nc1nsc2c(=O)n(CC3CCCCC3)cc(Cl)c12)C(F)(F)C(F)(F)F [Example I-081] |  | 100% | 100% | 100% | 100% | 100% | 100% |  |  |  |  |  |  | 100% | 100% | 100%
9 | O=C(Nc1nsc2c(=O)n(CC3CCCCC3)cc(Cl)c12)C(F)(F)F [Example I-086] |  | 100% | 100% | 100% | 100% | 100% | 100% |  |  |  |  |  |  | 100% | 100% | 100%
10 | O=C(Nc1nsc2c(=O)n(Cc3cc(F)c(F)cc3F)cc(F)c12)C(F)F [Example I-165] | 100% | 100% | 100% | 100% | 100% | 100% | 100% | 100% | 90% | 100% | 100% | 100% | 80% |  |  | 
11 | O=C(Nc1nsc2c(=O)n(CC3CCCCC3Cl)cc(Cl)c12)C(F)(F)F (racemic) [Example I-171] | 90% | 100% | 100% | 100% | 100% | 100% | 100% | 100% | 100% | 100% | 100% | 100% | 100% |  |  | 

— patent US10842152B2, “Isothiazolo-based bicycles, processes for their preparation and their use as herbicides and/or plant growth regulators” (Bayer CropScience Aktiengesellschaft, priority 2017, dated 2020)
